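Compound exposure: 48 hours, 5 concentrations, 96-well plates. The concentration for 50% growth inhibition is given as GI50.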 Calls of active or inactive are those of the source. Rule as the data show it: active = GI50 up to about 1.1 µM and inactive = higher.
Columns and labels:
Test in all cases: DTP human tumour cell line panel, 48 h
LOX IMVI = tested on: LOX IMVI
SK-MEL-28 = tested on: SK-MEL-28
OVCAR-4 = tested on: OVCAR-4
UACC-62 = tested on: UACC-62
SK-MEL-5 = tested on: SK-MEL-5
A549 = tested on: A549
ACHN = tested on: ACHN
SF-295 = tested on: SF-295
IGROV-1 = tested on: IGROV-1
U-251 = tested on: U-251
RPMI-8226 = tested on: RPMI-8226
SF-539 = tested on: SF-539
SK-MEL-2 = tested on: SK-MEL-2
NCI/ADR-RES = tested on: NCI/ADR-RES
K562 = tested on: K562
786-0 = tested on: 786-0
SNB-19 = tested on: SNB-19
UO-31 = tested on: UO-31
SK-OV-3 = tested on: SK-OV-3
SR = tested on: SR
HCT-15 = tested on: HCT-15
RXF 393 = tested on: RXF 393
BT-549 = tested on: BT-549
SNB-75 = tested on: SNB-75
SW-620 = tested on: SW-620
MDA-MB-231 = tested on: MDA-MB-231
NCI-H522 = tested on: NCI-H522
HCT-116 = tested on: HCT-116
HCC 2998 = tested on: HCC 2998
MDA-N = tested on: MDA-N
NCI-H460 = tested on: NCI-H460
HOP-62 = tested on: HOP-62
OVCAR-8 = tested on: OVCAR-8
SF-268 = tested on: SF-268
DU-145 = tested on: DU-145
NCI-H226 = tested on: NCI-H226
OVCAR-3 = tested on: OVCAR-3
T47D = tested on: T47D
CAKI-1 = tested on: CAKI-1
UACC-257 = tested on: UACC-257
TK-10 = tested on: TK-10
MOLT-4 = tested on: MOLT-4
HOP-92 = tested on: HOP-92
COLO 205 = tested on: COLO 205
A498 = tested on: A498
SN12C = tested on: SN12C
Hs-578T = tested on: Hs-578T
HT-29 = tested on: HT-29
NCI-H23 = tested on: NCI-H23
HL-60 = tested on: HL-60
PC-3 = tested on: PC-3
OVCAR-5 = tested on: OVCAR-5
Malme-3M = tested on: Malme-3M
EKVX = tested on: EKVX
CCRF-CEM = tested on: CCRF-CEM
MCF7 = tested on: MCF7
MDA-MB-435 = tested on: MDA-MB-435

With `COC(=O)Cc1c2n(c3ccccc13)C(=O)N1c3ccccc3C(CC(=O)OC)C21` (configuration not stated) the GI50 (LOX IMVI) was 63.5 µM (inactive), the GI50 (SK-MEL-28) was > 100 µM (inactive) and the GI50 (OVCAR-4) was 10.7 µM (inactive). For the same compound, the GI50 (UACC-62) was 23.5 µM (inactive), the GI50 (SK-MEL-5) was 56.2 µM (inactive) and the GI50 (A549) was 34.2 µM (inactive). For the same compound, the GI50 (ACHN) was 24.4 µM (inactive), the GI50 (SF-295) was 18.8 µM (inactive) and the GI50 (IGROV-1) was 7.41 µM (inactive). The GI50 (U-251) was 28.3 µM (inactive), the GI50 (RPMI-8226) was > 100 µM (inactive) and the GI50 (SF-539) was 16.1 µM (inactive). The GI50 (SK-MEL-2) was 38.7 µM (inactive), the GI50 (NCI/ADR-RES) was 53.1 µM (inactive) and the GI50 (K562) was > 100 µM (inactive). The GI50 (786-0) was 13.1 µM (inactive), the GI50 (SNB-19) was 18.1 µM (inactive) and the GI50 (UO-31) was 54.5 µM (inactive). For the same compound, the GI50 (SK-OV-3) was 21.8 µM (inactive), the GI50 (SR) was > 100 µM (inactive) and the GI50 (HCT-15) was 69 µM. The GI50 (RXF 393) was 21.2 µM (inactive), the GI50 (BT-549) was 25.5 µM (inactive) and the GI50 (SNB-75) was 7.45 µM (inactive). The GI50 (SW-620) was > 100 µM (inactive), the GI50 (MDA-MB-231) was 17.3 µM (inactive) and the GI50 (NCI-H522) was 62.1 µM (inactive). For the same compound, the GI50 (HCT-116) was 23 µM (inactive), the GI50 (HCC 2998) was 68.1 µM (inactive) and the GI50 (MDA-N) was > 100 µM (inactive). The GI50 (NCI-H460) was 11.6 µM (inactive), the GI50 (HOP-62) was 17.4 µM (inactive) and the GI50 (OVCAR-8) was 31.8 µM (inactive). For the same compound, the GI50 (SF-268) was 39.5 µM (inactive), the GI50 (DU-145) was > 100 µM (inactive) and the GI50 (NCI-H226) was > 100 µM (inactive). For the same compound, the GI50 (OVCAR-3) was 55.7 µM (inactive), the GI50 (T47D) was 76 µM (inactive) and the GI50 (CAKI-1) was 21.1 µM (inactive). For the same compound, the GI50 (UACC-257) was > 100 µM (inactive), the GI50 (TK-10) was 14.9 µM (inactive) and the GI50 (MOLT-4) was > 100 µM (inactive). The GI50 (HOP-92) was 9.73 µM (inactive), the GI50 (COLO 205) was 87.3 µM (inactive) and the GI50 (A498) was 39.9 µM (inactive). The GI50 (SN12C) was > 100 µM (inactive), the GI50 (Hs-578T) was 21.1 µM (inactive) and the GI50 (HT-29) was > 100 µM (inactive). The GI50 (NCI-H23) was 15.7 µM (inactive), the GI50 (HL-60) was 3.89 µM (inactive) and the GI50 (PC-3) was 51.5 µM (inactive). The GI50 (OVCAR-5) was 32.9 µM (inactive), the GI50 (Malme-3M) was 81.3 µM (inactive) and the GI50 (EKVX) was 45.3 µM (inactive). The GI50 (CCRF-CEM) was > 100 µM (inactive), the GI50 (MCF7) was 59.3 µM (inactive) and the GI50 (MDA-MB-435) was > 100 µM (inactive).

Source: ChEMBL document CHEMBL1201862, “PubChem BioAssay data set” (2004)
